Experimental data published in patent US7772241B2, “Variolin derivatives and their use as antitumor agents” (Pharma Mar S.A., priority 2001, dated 2010).

Tests used:
PANC-1 = experiment: Inhibition of cells growth by colorimetric (SRB) assay, PANC-1; conditions: for GI50 / CC50: Homo sapiens, PANC-1, 48 h; for GI50: read-out: PANC-1 GI50, SRB assay, 48 hours exposure; for CC50: read-out: PANC-1 LC50, SRB assay, 48 hours exposure; for PANC-1 TGI: SRB assay, 48 hours exposure
Outline: (§1)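 Human tumour cells seeded at 5×10^3/well in RPMI 1640 10% FBS, attached 18 h, then exposed 48 h to samples at 10 to 10^−8 μg/ml in DMSO/EtOH/PBS (0.5:0.5:99). Growth read by SRB staining after TCA fixation, OD 490 nm, triplicate wells; GI, TGI and LC derived.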

SK-MEL-28 = experiment: Inhibition of cells growth by colorimetric (SRB) assay, SK-MEL-28; conditions: for GI50 / CC50: Homo sapiens, SK-MEL-28, 48 h; for GI50: read-out: MEL-28 GI50, SRB assay, 48 hours exposure; for CC50: read-out: MEL-28 LC50, SRB assay, 48 hours exposure; for MEL-28 TGI: SRB assay, 48 hours exposure
Outline: as §1

HT-29 = experiment: Inhibition of cells growth by colorimetric (SRB) assay, HT-29; conditions: for GI50 / CC50: Homo sapiens, HT-29, 48 h; for GI50: read-out: HT-29 GI50, SRB assay, 48 hours exposure; for CC50: read-out: HT-29 LC50, SRB assay, 48 hours exposure; for HT-29 TGI: SRB assay, 48 hours exposure
Outline: as §1

K-562 = experiment: Inhibition of cells growth by colorimetric (SRB) assay, K-562; conditions: for GI50 / CC50: Homo sapiens, K562, 48 h; for GI50: read-out: K-562 GI50, SRB assay, 48 hours exposure; for CC50: read-out: K-562 LC50, SRB assay, 48 hours exposure; for K-562 TGI: SRB assay, 48 hours exposure
Outline: as §1

DU-145 = experiment: Inhibition of cells growth by colorimetric (SRB) assay, DU-145; conditions: for GI50 / CC50: Homo sapiens, DU-145, 48 h; for GI50: read-out: DU-145 GI50, SRB assay, 48 hours exposure; for CC50: read-out: DU-145 LC50, SRB assay, 48 hours exposure; for DU-145 TGI: SRB assay, 48 hours exposure
Outline: as §1

HeLa = experiment: Inhibition of cells growth by colorimetric (SRB) assay, HeLa; conditions: for GI50: Homo sapiens, HeLa, 48 h, read-out: HELA GI50, SRB assay, 48 hours exposure; for HELA TGI: SRB assay, 48 hours exposure
Description: (§2) The finality of these assays is to interrupt the growth of a “in vitro” tumor cell culture by means a continued exhibition of the cells to the sample to be testing.
(§3) This form of the assay employs 96 well cell culture microplates of 9 mm diameter (Faircloth, 1988; Mosmann, 1983). Most of the cell lines are obtained from American Type Culture Collection (ATCC) derived from different human cancer types.
(§4) Cells are maintained in RPMI 1640 10% FBS, supplemented with 0.1 g/l penicillin and 0.1 g/l streptomycin sulphate and then incubated at 37° C., 5% CO2 and 98% humidity. For the experiments, cells were harvested from subconfluent cultures using trypsin and resuspended in fresh medium before plating.
(§5) Cells are seeded in 96 well microtiter plates, at 5×10^3 cells per well in aliquots of 195 μl medium, and they are allowed to attach to the plate surface by growing in drug free medium for 18 hours. Afterward, samples are added in aliquots of 5 μl in a ranging from 10 to 10^−8 μg/ml, dissolved in DMSO/EtOH/PBS (0.5:0.5:99). After 48 hours exposure, the antitumor effect are measured by the SRB methodology: cells are fixed by adding 50 μl of cold 50% (wt/vol) trichloroacetic acid (TCA) and incubating for 60 minutes at 4° C. Plates are washed with deionized water and dried. One hundred μl of SRB solution (0.4% wt/vol in 1% acetic acid) is added to each microtiter well and incubated for 10 minutes at room temperature. Unbound SRB is removed by washing with 1% acetic acid. Plates are air dried and bound stain is solubilized with Tris buffer. Optical densities are read on a automated spectrophotometric plate reader at a single wavelength of 490 nm.
(§6) The values for mean +/−SD of data from triplicate wells are calculated. Some parameters for cellular responses can be calculated: GI=growth inhibition, TGI=total growth inhibition (cytostatic effect) and LC=cell killing (cytotoxic effect).

LNCaP = experiment: Inhibition of cells growth by colorimetric (SRB) assay, LNCaP; conditions: for GI50 / CC50: Homo sapiens, LNCaP, 48 h; for GI50: read-out: LN-caP GI50, SRB assay, 48 hours exposure; for CC50: read-out: LN-caP LC50, SRB assay, 48 hours exposure; for LN-caP TGI: SRB assay, 48 hours exposure
Outline: as §1

LoVo-Dox = experiment: Inhibition of cells growth by colorimetric (SRB) assay, LoVo-Dox; conditions: for GI50 / CC50: Homo sapiens, 48 h; for GI50: read-out: LOVO-DOX GI50, SRB assay, 48 hours exposure; for CC50: read-out: LOVO-DOX LC50, SRB assay, 48 hours exposure; for LOVO-DOX TGI: SRB assay, 48 hours exposure
Outline: as §1

HeLa-APL = experiment: Inhibition of cells growth by colorimetric (SRB) assay, HeLa-APL; conditions: for GI50 / CC50: Homo sapiens, 48 h; for GI50: read-out: HELA-APL GI50, SRB assay, 48 hours exposure; for CC50: read-out: HELA-APL LC50, SRB assay, 48 hours exposure; for HELA-APL TGI: SRB assay, 48 hours exposure
Description: as §2, §3, §4, §5, §6

IGROV-ET = experiment: Inhibition of cells growth by colorimetric (SRB) assay, IGROV-ET; conditions: for GI50 / CC50: Homo sapiens, 48 h; for GI50: read-out: IGROV-ET GI50, SRB assay, 48 hours exposure; for CC50: read-out: IGROV-ET LC50, SRB assay, 48 hours exposure; for IGROV-ET TGI: SRB assay, 48 hours exposure
Outline: as §1

SK-BR-3 = experiment: Inhibition of cells growth by colorimetric (SRB) assay, SK-BR-3; conditions: for GI50 / CC50: Homo sapiens, SK-BR-3, 48 h; for GI50: read-out: SK-BR-3 GI50, SRB assay, 48 hours exposure; for CC50: read-out: SK-BR-3 LC50, SRB assay, 48 hours exposure; for SK-BR-3 TGI: SRB assay, 48 hours exposure
Outline: as §1

IGROV-1 = experiment: Inhibition of cells growth by colorimetric (SRB) assay, IGROV-1; conditions: for GI50 / CC50: Homo sapiens, IGROV-1, 48 h; for GI50: read-out: IGROV GI50, SRB assay, 48 hours exposure; for CC50: read-out: IGROV LC50, SRB assay, 48 hours exposure; for IGROV TGI: SRB assay, 48 hours exposure
Outline: as §1

A-549 = experiment: Inhibition of cells growth by colorimetric (SRB) assay, A-549; conditions: for GI50 / CC50: Homo sapiens, A549, 48 h; for GI50: read-out: A-549 GI50, SRB assay, 48 hours exposure; for CC50: read-out: A-549 LC50, SRB assay, 48 hours exposure; for A-549 TGI: SRB assay, 48 hours exposure
Outline: as §1

LoVo = experiment: Inhibition of cells growth by colorimetric (SRB) assay, LoVo; conditions: for GI50 / CC50: Homo sapiens, LoVo, 48 h; for GI50: read-out: LOVO GI50, SRB assay, 48 hours exposure; for CC50: read-out: LOVO LC50, SRB assay, 48 hours exposure; for LOVO TGI: SRB assay, 48 hours exposure
Outline: as §1

CSc1nccc(-c2c3cccnc3n3c(N)nccc23)n1.Cl [Compound 68]
GI50 (PANC-1): 0.588 µM | CC50 (PANC-1): 29 µM | PANC-1 TGI (PANC-1): 1.15E−05 | GI50 (SK-MEL-28): 1.08 µM | CC50 (SK-MEL-28): 14.4 µM | MEL-28 TGI (SK-MEL-28): 4.49E−06 | GI50 (HT-29): 1.14 µM | CC50 (HT-29): 29 µM | HT-29 TGI (HT-29): 6.93E−06 | GI50 (K-562): 2.51 µM | CC50 (K-562): 29 µM | K-562 TGI (K-562): 1.84E−05 | GI50 (DU-145): 0.365 µM | CC50 (DU-145): 2.9 µM | DU-145 TGI (DU-145): 1.03E−06 | GI50 (HeLa): 0.01 µM | HELA TGI (HeLa): 3.19E−08 | GI50 (LNCaP): 0.31 µM | CC50 (LNCaP): 4.41 µM | LN-caP TGI (LNCaP): 1.05E−06 | GI50 (LoVo-Dox): 1.15 µM | CC50 (LoVo-Dox): 29 µM | LOVO-DOX TGI (LoVo-Dox): 2.43E−06 | GI50 (HeLa-APL): 0.0103 µM | CC50 (HeLa-APL): 0.655 µM | HELA-APL TGI (HeLa-APL): 5.68E−08 | GI50 (IGROV-ET): 2.82 µM | CC50 (IGROV-ET): 29 µM | IGROV-ET TGI (IGROV-ET): 1.44E−05 | GI50 (SK-BR-3): 0.641 µM | CC50 (SK-BR-3): 16.1 µM | SK-BR-3 TGI (SK-BR-3): 3.42E−06 | GI50 (IGROV-1): 1.72 µM | CC50 (IGROV-1): 29 µM | IGROV TGI (IGROV-1): 1.27E−05 | GI50 (A-549): 1.29 µM | CC50 (A-549): 29 µM | A-549 TGI (A-549): 5.10E−06 | GI50 (LoVo): 0.539 µM | CC50 (LoVo): 2.59 µM | LOVO TGI (LoVo): 1.18E−06

CSc1nccc(-c2c3cc4ccccc4nc3n3c(N)nccc23)n1 [Compound 18a]
GI50 (PANC-1): 6.53 µM | CC50 (PANC-1): ≥ 27.9 µM | PANC-1 TGI (PANC-1): 1.46E−05 | GI50 (SK-MEL-28): 4.97 µM | CC50 (SK-MEL-28): ≥ 27.9 µM | MEL-28 TGI (SK-MEL-28): 1.20E−05 | GI50 (HT-29): 4.41 µM | CC50 (HT-29): ≥ 27.9 µM | HT-29 TGI (HT-29): 1.67E−05 | GI50 (K-562): 4.72 µM | CC50 (K-562): ≥ 27.9 µM | K-562 TGI (K-562): 1.66E−05 | GI50 (DU-145): 4.27 µM | CC50 (DU-145): 23.3 µM | DU-145 TGI (DU-145): 9.99E−06 | GI50 (HeLa): 0.0449 µM | HELA TGI (HeLa): 3.68E−06 | GI50 (LNCaP): 3.49 µM | CC50 (LNCaP): 15.3 µM | LN-caP TGI (LNCaP): 7.31E−06 | GI50 (LoVo-Dox): 3.1 µM | CC50 (LoVo-Dox): ≥ 27.9 µM | LOVO-DOX TGI (LoVo-Dox): 9.74E−06 | GI50 (HeLa-APL): 0.0569 µM | CC50 (HeLa-APL): 6.56 µM | HELA-APL TGI (HeLa-APL): 8.31E−07 | GI50 (IGROV-ET): 7.06 µM | CC50 (IGROV-ET): ≥ 27.9 µM | IGROV-ET TGI (IGROV-ET): 1.53E−05 | GI50 (SK-BR-3): 1.34 µM | CC50 (SK-BR-3): ≥ 27.9 µM | SK-BR-3 TGI (SK-BR-3): 4.94E−06 | GI50 (IGROV-1): 5.47 µM | CC50 (IGROV-1): ≥ 27.9 µM | IGROV TGI (IGROV-1): 1.33E−05 | GI50 (A-549): 7.31 µM | CC50 (A-549): ≥ 27.9 µM | A-549 TGI (A-549): 1.66E−05 | GI50 (LoVo): 5.11 µM | CC50 (LoVo): 17 µM | LOVO TGI (LoVo): 9.32E−06
